# Biological target: BACE1 (Memapsin 2) (Homo sapiens, UniProt P56817)
# Assay: Inhibition of BACE1 (memapsin 2) catalytic activity, fluorogenic substrate FS-2
# Format: biochemical
# Conditions: inhibition constants of BACE1; pH 4, 37° C.
# Description: Inhibition of BACE1 (Memapsin 2). Potency of compounds are determined by measurement of their inhibition of memapsin 2 catalytic activity toward a fluorescent substrate. […] Briefly, assays are performed at pH 4, 37° C., by pre-incubation of memapsin 2 enzyme with compound for 20 minutes. Activity measure is initiated by addition of a fluorogenic substrate FS-2 (Bachem Americas, Torrance, Calif.). Fluorescent signal increase over time is measured as a rate of hydrolysis of the peptide substrate. […]
# Chain of BACE1 (Memapsin 2) (P56817 46-501): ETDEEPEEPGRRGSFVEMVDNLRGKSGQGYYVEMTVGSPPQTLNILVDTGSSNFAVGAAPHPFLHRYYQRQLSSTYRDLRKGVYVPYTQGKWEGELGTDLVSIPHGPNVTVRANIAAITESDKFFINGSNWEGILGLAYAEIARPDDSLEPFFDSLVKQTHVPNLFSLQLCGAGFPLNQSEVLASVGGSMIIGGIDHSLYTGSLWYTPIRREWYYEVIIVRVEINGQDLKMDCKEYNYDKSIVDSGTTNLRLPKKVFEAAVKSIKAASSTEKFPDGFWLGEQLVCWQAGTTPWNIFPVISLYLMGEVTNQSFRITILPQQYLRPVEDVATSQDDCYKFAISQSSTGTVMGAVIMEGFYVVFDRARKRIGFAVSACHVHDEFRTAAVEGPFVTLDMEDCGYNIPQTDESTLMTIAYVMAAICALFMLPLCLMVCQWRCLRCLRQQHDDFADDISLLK
row,Compound,Ki [µM]
1,C[C@@H](NC(=O)c1cc(C(=O)N[C@H](CN[C@H](CO)Cc2ccccc2)Cc2ccccc2)cc(N(C)S(C)(=O)=O)c1)c1ccccc1 [Example 0397],< 1000
2,C[C@@H](NC(=O)c1cc(C(=O)N[C@H](CN[C@@H]2c3ccccc3C[C@@H]2O)Cc2ccccc2)cc(N(C)S(C)(=O)=O)c1)c1ccccc1 [Example 0407],< 1000
3,COC(=O)[C@H](NC[C@H](Cc1ccccc1)NC(=O)c1cc(C(=O)N[C@H](C)c2ccccc2)cc(N(C)S(C)(=O)=O)c1)[C@@H](C)O [Example 0417],< 1000
4,C[C@@H](NC(=O)c1cc(C(=O)N[C@H](CN[C@H]2c3ccccc3C[C@H]2O)Cc2ccccc2)cc(N(C)S(C)(=O)=O)c1)c1ccccc1 [Example 0427],< 1000
5,COc1cccc([C@@H](NC[C@H](Cc2ccccc2)NC(=O)c2cccc(C(=O)N(C)Cc3nc(C)cs3)c2)[C@H](O)Cc2ccccc2)c1 [Example 0439],> 1000
6,COc1cccc([C@H](NC[C@H](Cc2ccccc2)NC(=O)c2cccc(C(=O)N(C)Cc3nc(C)cs3)c2)[C@H](O)Cc2ccccc2)c1 [Example 0449],> 1000
7,Cc1csc(CN(C)C(=O)c2cccc(C(=O)N[C@H](CN[C@H](C(=O)NCC(C)C)[C@H](C)O)Cc3ccccc3)c2)n1 [Example 0637],< 1000
8,Cc1csc(CN(C)C(=O)c2cccc(C(=O)N[C@H](CN[C@@H]3c4ccccc4C[C@@H]3O)Cc3ccccc3)c2)n1 [Example 0647],< 1000
9,COC(=O)[C@H](NC[C@H](Cc1ccccc1)NC(=O)c1cccc(C(=O)N(C)Cc2nc(C)cs2)c1)[C@@H](C)O [Example 0667],> 1000
10,CC(C)CNC[C@@H](NC[C@H](Cc1ccccc1)NC(=O)c1cc(C(=O)N[C@H](C)c2ccccc2)cc(N(C)S(C)(=O)=O)c1)[C@H](C)O [Example 1439],< 0.1
11,CC(C)CNC[C@@H](NC[C@H](Cc1ccccc1)NC(=O)c1cc(C(=O)N[C@H](C)c2ccccc2)cc(N(C)S(C)(=O)=O)c1)[C@@H](O)CC(C)C [Example 1479],< 0.1
